Measured values from patent US20250109127A1, “METHODS OF USE OF PHENOXYPROPYLAMINE COMPOUNDS TO TREAT DEPRESSION” (Minerva Neurosciences, Inc., priority 2013, published 2025).
Where “and” joins values, the source holds several entries; their conditions need not be identical. Identical values can stand only once.

Test system: 5-HIAA release in the rat prefrontal cortex
Assay: Microdialysis: 5-HIAA release in prefrontal cortex after I.P. administration
Assay type: in vivo
Details: for 5-HIAA in dialysate, MEAN / 5-HIAA in dialysate, individual animals: Citalopram 10 mg/kg I.P.
Description: The aim of the study was to evaluate, using microdialysis, the effects of an intraperitoneal (I.P.) administration in rats of three different doses of SON-117 on dopamine and its metabolites, serotonin and its metabolite (5-HIAA), and norepinephrine levels in prefrontal cortex.
Thirty-two adult male Wistar rats were used for the whole study (4 groups of eight animals planned for the study, Table 1).
Surgery was performed on rats weighing about 300 g at the beginning of the experiments. Rats were anaesthetized with Ketamine (50 mg/kg) & Xylazine (15 mg/kg) by intramuscular administration. The animals were placed in a stereotaxic apparatus in the flat-skull position at a constant setting of −3.3 mm between ear bars and the incisor bar. The animals were treated with a local anesthesic (xylocaine 1%, Astra Zeneca) and an analgesic (Temgesic, from Schering Plough, 0.05 mg/kg, s.c.). A rostrocaudal midline incision was made with a lancet to expose the dorsal skull surface. The “stereotaxic zero” was defined by the Bregma in accordance with Paxinos and Watson's atlas (1986). A hole was drilled in the skull with a drill and the meninges were pierced with a sterile needle to implant a CMA12 guide cannula which later received the dialysis probe.
Coordinates used for implanting guide cannula in prefrontal cortex from Bregma were anteroposterior 3.7 mm, mediolateral 0.8 mm, and dorsoventral −2 mm (top of the probe was at −5 mm). The guide cannula was fixed to the skull with two stainless steel screws (1.88 mm outside diameter) anchored. An application of dental cement was added. A plastic collar allowed each animal to be tethered to a Swivel assembly of the CMA 120 awake animal system. Following surgery, rats were kept in individual cages and allowed to recover for a minimum of 3-5 days before the experimentation. The rats were handled and put in plastic bowl for 10 min at least every day to habituate the animals to their new environment for the dialysis. An I.P. administration with saline was also performed every day.
Dialysis probes (CMA12/3 mm, membrane, 20 kD cut-off, Carnegie Medicine, Stockholm, Sweden), were carefully washed before inserting into the guide cannula. The wash was performed with the artificial cerebrospinal fluid (aCSF) medium (NaCl 147 mM, KCl 2.7 mM, CaCl2 1.2 mM, MgCl2 0.85 mM) at room temperature. The dialysis system was then equilibrated at 20° C. at a perfusion rate of 1 μl/min with a Carnegie pump (CMA100). All catheters (FEP tubing, internal volume of 1.2 μl/10 cm, and tubing adaptors) used for microdialysis were treated in the same conditions.
The probes duly prepared were inserted into the guide cannula and the CMA120 Swivel assembly secured to the animal using a plastic collar. Flow through the dialysis probe with aCSF was maintained at a rate of 1 μl/min during the whole experimentation. The first four fractions (corresponding to 2 hours) were discarded to avoid the effects of parenchymal disturbance and to ensure that an approximate steady-state level was reached. Fractions were then collected over a period of 8.5 h during which time the animals remained quiet. The dialysates were automatically collected with an autosampler (microfraction collector CMA 140, Carnegie Medicin) and stored at −80° C. until analysis. […] Perfusion was then maintained for 7 hours with aCSF. The dialysates (30 μl) were collected into 300 μl vials, transferred into dry ice and then kept frozen (−80° C.) until analysis. Frozen samples were shipped to a partner for analysis. At the end of the microdialysis study, a PBS with colored ink was perfused through the probe in order to visualize the dialyzed area.
Catecholamine assay: Concentrations of dopamine, DOPAC, HVA, 5-HIAA, 5-HT, and norepinephrin were determined for each sample by HPLC coupled with electrochemical detection.

CN(C)CCCC1(c2ccc(F)cc2)OCc2cc(C#N)ccc21 (stereo not drawn) [Citalopram, citalopram, reference compound]
5-HIAA in dialysate, MEAN (T30-T1 h): 112.98 % of respective basal
5-HIAA in dialysate, individual animals (T30-T1 h): 108.67 % of respective basal and 107.01 % of respective basal and 121.99 % of respective basal and 141.67 % of respective basal and 110.50 % of respective basal and 102.40 % of respective basal and 95.39 % of respective basal and 116.20 % of respective basal
5-HIAA in dialysate, MEAN (T1 h 30-T2 h): 89.03 % of respective basal
5-HIAA in dialysate, individual animals (T1 h 30-T2 h): 79.21 % of respective basal and 80.54 % of respective basal and 115.42 % of respective basal and 91.93 % of respective basal and 89.59 % of respective basal and 74.91 % of respective basal and 97.01 % of respective basal and 83.65 % of respective basal
5-HIAA in dialysate, MEAN (T1 h-T1 h 30): 101.94 % of respective basal
5-HIAA in dialysate, individual animals (T1 h-T1 h 30): 100.18 % of respective basal and 85.46 % of respective basal and 131.13 % of respective basal and 121.97 % of respective basal and 98.30 % of respective basal and 88.97 % of respective basal and 88.75 % of respective basal and 100.76 % of respective basal
5-HIAA in dialysate, MEAN (T2 h 30-T3 h): 72.04 % of respective basal
5-HIAA in dialysate, individual animals (T2 h 30-T3 h): 51.39 % of respective basal and 53.65 % of respective basal and 94.55 % of respective basal and 76.96 % of respective basal and 86.07 % of respective basal and 61.11 % of respective basal and 78.96 % of respective basal and 73.66 % of respective basal
5-HIAA in dialysate, MEAN (T2 h-T2 h 30): 82.39 % of respective basal
5-HIAA in dialysate, individual animals (T2 h-T2 h 30): 86.10 % of respective basal and 66.06 % of respective basal and 115.98 % of respective basal and 81.96 % of respective basal and 87.60 % of respective basal and 62.15 % of respective basal and 79.47 % of respective basal and 79.79 % of respective basal
5-HIAA in dialysate, MEAN (T3 h 30-T4 h): 74.61 % of respective basal
5-HIAA in dialysate, individual animals (T3 h 30-T4 h): 73.28 % of respective basal and 61.52 % of respective basal and 99.49 % of respective basal and 73.39 % of respective basal and 75.64 % of respective basal and 59.18 % of respective basal and 77.94 % of respective basal and 76.45 % of respective basal
5-HIAA in dialysate, MEAN (T3 h-T3 h 30): 73.07 % of respective basal
5-HIAA in dialysate, individual animals (T3 h-T3 h 30): 74.34 % of respective basal and 48.79 % of respective basal and 107.40 % of respective basal and 68.89 % of respective basal and 77.21 % of respective basal and 56.57 % of respective basal and 77.95 % of respective basal and 73.43 % of respective basal
5-HIAA in dialysate, MEAN (T4 h 30-T5 h): 71.07 % of respective basal
5-HIAA in dialysate, individual animals (T4 h 30-T5 h): 75.13 % of respective basal and 59.79 % of respective basal and 90.52 % of respective basal and 59.71 % of respective basal and 66.71 % of respective basal and 59.77 % of respective basal and 77.37 % of respective basal and 79.55 % of respective basal
5-HIAA in dialysate, MEAN (T4 h-T4 h 30): 73.18 % of respective basal
5-HIAA in dialysate, individual animals (T4 h-T4 h 30): 72.77 % of respective basal and 52.24 % of respective basal and 97.15 % of respective basal and 67.66 % of respective basal and 75.69 % of respective basal and 64.72 % of respective basal and 80.07 % of respective basal and 75.12 % of respective basal
5-HIAA in dialysate, MEAN (T5 h 30-T6 h): 68.38 % of respective basal
5-HIAA in dialysate, individual animals (T5 h 30-T6 h): 55.76 % of respective basal and 56.52 % of respective basal and 86.58 % of respective basal and 66.99 % of respective basal and 65.74 % of respective basal and 68.20 % of respective basal and 71.48 % of respective basal and 75.45 % of respective basal
5-HIAA in dialysate, MEAN (T5 h-T5 h 30): 69.50 % of respective basal
5-HIAA in dialysate, individual animals (T5 h-T5 h 30): 50.96 % of respective basal and 91.09 % of respective basal and 61.61 % of respective basal and 64.79 % of respective basal and 60.00 % of respective basal and 84.10 % of respective basal and 73.94 % of respective basal
5-HIAA in dialysate, MEAN (T6 h 30-T7 h): 67.44 % of respective basal
5-HIAA in dialysate, individual animals (T6 h 30-T7 h): 61.13 % of respective basal and 52.63 % of respective basal and 87.81 % of respective basal and 64.43 % of respective basal and 57.20 % of respective basal
5-HIAA in dialysate, MEAN (T6 h-T6 h 30): 63.81 % of respective basal
5-HIAA in dialysate, individual animals (T6 h-T6 h 30): 60.01 % of respective basal and 53.66 % of respective basal and 90.97 % of respective basal and 62.02 % of respective basal and 55.94 % of respective basal and 67.93 % of respective basal and 47.86 % of respective basal and 72.09 % of respective basal
5-HIAA in dialysate, MEAN (T-30 min-T0 (pre-dose)): 102.91 % of respective basal
5-HIAA in dialysate, MEAN (T-1 h 30-T-1 h (pre-dose)): 97.47 % of respective basal
5-HIAA in dialysate, MEAN (T-1 h-T-30 min (pre-dose)): 98.99 % of respective basal
5-HIAA concentration in prefrontal cortex, significant slight increase (citalopram 10 mg/kg IP, at 0.5 h and 1 h): 113%
